# Source: patent US20210230159A1, “4H-PYRIDO[1,2-A]PYRIMIDIN-4-ONE COMPOUNDS” (Prana Biotechnology Limited, priority 2014, published 2021)
# Experiment: Hydrogen peroxide (H2O2) inhibition assay (fluorescence, DCF/horseradish peroxidase)
# Type: biochemical
# Details: for IC50: HCl salt tested where HCl salt MW is given; for Fe-ASC % (cf. 0.4 uM Fe/Asc; cf. CQ, CQ = 100%) / Cu % ASC (cf. CQ = 100%) / Zn % ASC (cf. CQ = 100%): ascorbic acid as reducing substrate; for Fe-ASC % (cf. 0.4 uM Fe/Asc; cf. CQ, CQ = 100%) / Fe-DA % (cf. 0.4 uM Fe/DA; cf. CQ, CQ = 100%): test compound 0.4 μM, lower values = greater inhibition of H2O2; for Fe-DA % (cf. 0.4 uM Fe/DA; cf. CQ, CQ = 100%): dopamine as reducing substrate
# Protocol: Assay 1. Hydrogen Peroxide Assay
# H2O2 is a strong oxidizer and a highly reactive oxygen species that is known to be toxic to surrounding proteins and organelles, inhibiting their function. […] […] H2O2 generated by the system is assessed by measuring the specific fluorescence profile at the excitation and emission wavelengths of 485 and 530 nm respectively, in the presence of test compound. Test compounds were dissolved in DMSO and tested at concentrations of 0.4 μM. Test compounds are ranked according to their capacity to inhibit H2O2 generated by the system where lower values reflect greater ability to inhibit H2O2 production.
SMILES,IC50 [nM],"Fe-ASC % (cf. 0.4 uM Fe/Asc; cf. CQ, CQ = 100%) [% ASC]","Fe-DA % (cf. 0.4 uM Fe/DA; cf. CQ, CQ = 100%) [%]",Cu % ASC (cf. CQ = 100%),Zn % ASC (cf. CQ = 100%)
CCCCCCCNC(=O)C1=CNC2C(O)=CC=CN2C1=O (centres unmarked) [Compound 1462],460,72,54,–,–
O=c1cc(CNCc2ccc(C(F)(F)F)cc2)nc2c(O)cccn12 [Compound 1455],350,82,47,–,–
CCCCCCNC(=O)c1cnc2c(O)cccn2c1=O [Compound 1440],690,66,48,–,–
CN(C)Cc1cc(=O)n2cccc(O)c2n1 [Compound 1401],420,55,–,–,–
O=c1cc(CNCc2ccc(Cl)cc2)nc2c(O)cccn12 [Compound 1406],1140,–,–,–,–
O=C(NCC1CCCCC1)c1cnc2c(O)cccn2c1=O [Compound 1461],490,59,57,–,–
CCCc1cnc2c(O)c(-c3c(C)noc3C)c(Cl)cn2c1=O [Compound 1630],–,–,–,Cu 213% ASC,Zn 129% ASC
Cc1ccc(O)c2nc(CNCc3ccc(Cl)cc3)cc(=O)n12 [Compound 1469],500,63,43,–,–
"COCc1cnc2c(O)cccn2c1=O [Compound 1398, 9-Hydroxy-3-(methoxymethyl)-4H-pyrido[1,2-a]pyrimidin-4-one]",1290,39,–,–,–
O=C(NCc1ccc(F)cc1F)c1cnc2c(O)cccn2c1=O [Compound 1437],470,71,71,–,–
CN(Cc1ccc(F)cc1)Cc1cc(=O)n2cccc(O)c2n1 [Compound 1479],460,147,42,–,–
O=C(NCc1ccc(Cl)cc1Cl)c1cnc2c(O)cccn2c1=O [Compound 1452],540,60,49,–,–
Cc1cccc(NCc2cc(=O)n3c(C)ccc(O)c3n2)n1 [Compound 1531],1480,–,–,–,–
CCN(CC)Cc1cc(=O)n2c(C)ccc(O)c2n1 [Compound 1490],400,178,55,–,–
"CC(C)CNCc1cc(=O)n2cccc(O)c2n1 [Compound 1408, 9-Hydroxy-2-((isobutylamino)methyl)-4H-pyrido[1,2-a]pyrimidin-4-one hydrogen chloride]",430,–,–,–,–
CN(Cc1cccc(Cl)c1)Cc1cc(=O)n2cccc(O)c2n1 [Compound 1518],580,84,49,–,–

SMILES,IC50 [nM],"Fe-ASC % (cf. 0.4 uM Fe/Asc; cf. CQ, CQ = 100%) [% ASC]","Fe-DA % (cf. 0.4 uM Fe/DA; cf. CQ, CQ = 100%) [%]",Cu % ASC (cf. CQ = 100%),Zn % ASC (cf. CQ = 100%)
CCCCCNC(=O)c1cnc2c(O)cccn2c1=O [Compound 1422],680,63,–,–,–
CCCNC(=O)c1cnc2c(O)cccn2c1=O [Compound 1423],380,45,–,–,–
O=c1cc(CNC2CCCCC2)nc2c(O)cccn12 [Compound 1456],390,122,58,–,–
Cc1ccc(O)c2nc(CN(C)Cc3ccc(F)cc3)cc(=O)n12 [Compound 1500],360,171,42,–,–
Cc1ccc(CNCc2cc(=O)n3cccc(O)c3n2)cc1 [Compound 1478],3120,198,75,–,–
CC(C)c1cnc2c(O)c(-c3cnn(C)c3)ccn2c1=O [Compound 1633],–,–,–,Cu 17% ASC,Zn 140% ASC
O=C(NCc1ccc2c(c1)OCO2)c1cnc2c(O)cccn2c1=O [Compound 1432],410,65,66,–,–
O=c1cc(CNc2cccnc2)nc2c(O)cccn12 [Compound 1448],460,137,66,–,–
CCCNCc1cc(=O)n2c(C)ccc(O)c2n1 [Compound 1470],350,>234,38,–,–
CC(C)c1cnc2c(O)c(CN(C)C)ccn2c1=O [Compound 1632],–,–,–,Cu 228% ASC,Zn 106% ASC
O=C(NCc1ccc(Cl)cc1)c1cnc2c(O)cccn2c1=O [Compound 1429],390,–,148,Cu 54% ASC,Zn 57% ASC
CCN1CCN(Cc2cc(=O)n3cccc(O)c3n2)CC1 [Compound 1402],1680,36,–,–,–
CCN(CC)Cc1cc(=O)n2cccc(O)c2n1 [Compound 1439],> 10000,156,68,–,–
"CN(C)Cc1cnc2c(O)cccn2c1=O [Compound 1424, 3-((Dimethylamino)methyl)-9-hydroxy-4H-pyrido[1,2-a]pyrimidin-4-one hydrogen chloride]",800,48,–,–,–
O=c1cc(CN2CCCCC2)nc2c(O)cccn12 [Compound 1403],1700,49,–,–,–
O=C(NCc1ccc(F)c(F)c1)c1cnc2c(O)cccn2c1=O [Compound 1454],1000,65,46,–,–

# Further lines, results first:
IC50 [nM],"Fe-ASC % (cf. 0.4 uM Fe/Asc; cf. CQ, CQ = 100%) [% ASC]","Fe-DA % (cf. 0.4 uM Fe/DA; cf. CQ, CQ = 100%) [%]",Cu % ASC (cf. CQ = 100%),Zn % ASC (cf. CQ = 100%),SMILES
210,190,101,–,–,O=C(NC1CCCC1)c1cnc2c(O)cccn2c1=O [Compound 1436]
310,160,33,–,–,Cc1ccc(O)c2nc(CNCCc3ccccn3)cc(=O)n12 [Compound 1504]
< 100,34,–,–,–,O=c1cc(CNCCc2ccccn2)nc2c(O)cccn12 [Compound 1415]
290,86,–,–,–,CCCc1cnc2c(O)c(Cl)ccn2c1=O [Compound 1235]
< 100,176,45,–,–,CNC(=O)c1cnc2c(O)cccn2c1=O [Compound 1445]
330,133,64,–,–,Cc1ccc(O)c2nc(CN(C)Cc3ccccc3F)cc(=O)n12 [Compound 1527]
240,112,52,–,–,O=C(NCc1ccccn1)c1cnc2c(O)cccn2c1=O [Compound 1447]
230,204,42,–,–,Cc1ccc(O)c2nc(CNCC3CCCCC3)cc(=O)n12 [Compound 1503]
230,122,46,–,–,CN(CCc1ccccn1)Cc1cc(=O)n2cccc(O)c2n1 [Compound 1476]
240,30,–,–,–,O=c1cc(CNCCN2CCOCC2)nc2c(O)cccn12 [Compound 1418]
290,35,–,–,–,CCCCNCc1cc(=O)n2cccc(O)c2n1 [Compound 1405]
340,79,59,–,–,O=C(NCc1ccc(C(F)(F)F)cc1)c1cnc2c(O)cccn2c1=O [Compound 1453]
140,–,–,–,–,O=c1cc(CNCc2ccc(F)cc2)nc2c(O)cccn12 [Compound 1409]
130,29,–,–,–,O=c1cc(CNCCCN2CCOCC2)nc2c(O)cccn12 [Compound 1412]
340,–,76,Cu 212% ASC,Zn 69% ASC,CC(C)CNC(=O)c1cnc2c(O)cccn2c1=O [Compound 1425]
330,36,–,–,–,O=c1cc(CNCC2CC2)nc2c(O)cccn12 [Compound 1411]
210,169,39,–,–,Cc1ccc(O)c2nc(CNC3CCCCC3)cc(=O)n12 [Compound 1468]
320,105,46,–,–,Cc1ccc(O)c2nc(CN(C)Cc3cccc(F)c3)cc(=O)n12 [Compound 1525]
240,128,58,–,–,O=c1cc(CNCc2ccccc2)nc2c(O)cccn12 [Compound 1442]
170,148,32,–,–,Cc1ccc(O)c2nc(CN3CCC(C)CC3)cc(=O)n12 [Compound 1508]
300,102,52,–,–,CN(Cc1cc(=O)n2cccc(O)c2n1)Cc1ccccc1F [Compound 1516]
